Results taken from publication PMC5491371 (Clinical cancer research : an official journal of the …, 2016).

Molecular target: T1, ITK (Homo sapiens, UniProt Q08881)
T1 sequence (Q08881 1-620): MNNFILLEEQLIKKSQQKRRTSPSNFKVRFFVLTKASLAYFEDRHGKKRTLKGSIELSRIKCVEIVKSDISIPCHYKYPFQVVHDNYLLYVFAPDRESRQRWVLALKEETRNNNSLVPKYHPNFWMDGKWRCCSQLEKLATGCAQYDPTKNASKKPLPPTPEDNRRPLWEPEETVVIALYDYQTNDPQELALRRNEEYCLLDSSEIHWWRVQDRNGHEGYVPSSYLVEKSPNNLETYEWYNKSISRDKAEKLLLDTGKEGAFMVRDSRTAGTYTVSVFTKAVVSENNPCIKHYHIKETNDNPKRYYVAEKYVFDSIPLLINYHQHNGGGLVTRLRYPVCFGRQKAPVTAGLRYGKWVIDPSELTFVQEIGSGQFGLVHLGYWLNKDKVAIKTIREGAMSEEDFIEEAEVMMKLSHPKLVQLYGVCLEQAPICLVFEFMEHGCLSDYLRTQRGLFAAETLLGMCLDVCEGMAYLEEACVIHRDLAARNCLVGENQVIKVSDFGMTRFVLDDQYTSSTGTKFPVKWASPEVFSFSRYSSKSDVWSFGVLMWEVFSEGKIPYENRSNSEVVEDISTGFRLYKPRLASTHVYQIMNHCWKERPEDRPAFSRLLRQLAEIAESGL
Type: cell-based
Conditions: Jurkat, read-out: % inhibition at 1 μM

C=CC(=O)N1CCC[C@@H](n2nc(-c3ccc(Oc4ccccc4)cc3)c3c(N)ncnc32)C1 [ibrutinib] gave an inhibition at 1 µM of over 90%.
